From patent US7982043B2, “Protein tyrosine kinase enzyme inhibitors” (Wyeth LLC, priority 2003, dated 2011)
Converted amounts (≈) assume the structure as drawn.

Columns and labels:
Format in all cases: cell-based
A431 cells = assay: Cell proliferation assay (SRB), A431; details: EGFR +++, Her-2 +, 2 days, SRB; for IC50: Homo sapiens, A-431, 48 h, read-out: CELL IC50 A431
SK-Br-3 cells = assay: Cell proliferation assay (SRB), SK-Br-3; details: EGFR −, Her-2 +++, 2 days, SRB; for IC50: Homo sapiens, SK-BR-3, 48 h, read-out: CELL IC50 SKBr3
[1] = target: mouse fibroblast cell line transfected with the HER-2 oncogene (3T3/neu) (UniProt P04626, cells depend on it, species not given); assay: Cell proliferation assay (SRB), 3T3/neu; details: EGFR −, Her-2 +++, 2 days, SRB; for GI50: read-out: CELL IC50 3T3/NEU (converted)
MDA-MB-435 cells = assay: Cell proliferation assay (SRB), MDA-MB-435; details: EGFR −, Her-2 −, 2 days, SRB; for IC50: Homo sapiens, MDA-MB-435, 48 h, read-out: CELL IC50 MDA-MB-435
SW620 cells = assay: Cell proliferation assay (SRB), SW620; details: EGFR −, Her-2 −, 2 days, SRB; for IC50: Homo sapiens, SW-620, 48 h, read-out: CELL IC50 SW620

SMILES | IC50 (A431 cells) [µg/mL] | IC50 (SK-Br-3 cells) [µg/mL] | GI50 [1] [µM] | IC50 (MDA-MB-435 cells) [µg/mL] | IC50 (SW620 cells) [µg/mL] | CELL IC50 A431 (A431 cells) [µg/mL] | CELL IC50 SKBr3 (SK-Br-3 cells) [µg/mL] | CELL IC50 3T3/NEU [1] [µg/mL] | CELL IC50 MDA-MB-435 (MDA-MB-435 cells) [µg/mL] | CELL IC50 SW620 (SW620 cells) [µg/mL]
C=CC(=O)Nc1ccc2ncc(C#N)c(Nc3ccc(Sc4nccn4C)c(Cl)c3)c2c1 [Example 21, N-{4-[3-Chloro-4-(1-methyl-1H-imidazol-2-ylsulfanyl)-phenylamino]-3-cyano-quinolin-6-yl}-acrylamide] | 0.62 (≈ 1.35 µM) | 0.01 (≈ 0.0217 µM) | 1 | 4.57 (≈ 9.91 µM) | 1.84 (≈ 3.99 µM) |  |  |  |  | 
CCOc1cc2ncc(C#N)c(Nc3ccc4cc[nH]c4c3)c2cc1OCC [Example 22, 6,7-Diethoxy-4-(1H-indol-6-ylamino)-quinoline-3-carbonitrile] | 0.123 (≈ 0.33 µM) | 0.0374 (≈ 0.1 µM) | 2.51 | 0.365 (≈ 0.98 µM) | 0.286 (≈ 0.768 µM) |  |  |  |  | 
CCOc1cc2ncc(C#N)c(Nc3ccc4c(c3)S(=O)(=O)C=C4)c2cc1OCC [Example 30, 4-(1,1-Dioxo-1H-1-benzo[b]thiophen-6-ylamino)-6,7-diethoxy-q uinoline-3-carbonitrile] |  |  |  |  |  | 0.257 | 0.336 | 0.251 | 0.00328 | 0.146
COc1cc2c(Nc3ccc4cn[nH]c4c3)c(C#N)cnc2cc1OCCCN1CCOCC1 [Example 34, 4-(1H-Indazol-6-ylamino)-6-methoxy-7-(3-morpholin-4-yl-propoxy)-quinoline-3-carbonitrile] | > 5 | > 5 | > 10.9 | > 5 | > 5 |  |  |  |  | 
COc1cc2ncc(C#N)c(Nc3ccc(Sc4nccn4C)c(Cl)c3)c2cc1[N+](=O)[O-] [Example 35, 4-({3-chloro-4-[(1-methyl-1H-imidazol-2-yl)sulfanyl]phenyl}amino)-7-methoxy-6-nitro-3-quinolinecarbonitrile] | 2.88 (≈ 6.17 µM) | 0.669 (≈ 1.43 µM) | 8.76 | 1 (≈ 2.14 µM) | 1.55 (≈ 3.32 µM) |  |  |  |  | 
COc1cc2ncc(C#N)c(Nc3ccc(Sc4nccn4C)c(Cl)c3)c2cc1N [Example 36, 6-amino-4-({3-chloro-4-[(1-methyl-1H-imidazol-2-yl)sulfanyl]phenyl}amino)-7-methoxy-3-quinolinecarbonitrile] | 3.04 (≈ 6.96 µM) | 0.011 (≈ 0.0252 µM) | 2.43 | 0.39 (≈ 0.893 µM) | 3.16 (≈ 7.23 µM) |  |  |  |  | 
COc1cc2ncc(C#N)c(Nc3ccc(Sc4nccs4)c(Cl)c3)c2cc1[N+](=O)[O-] [Example 38, 4-{[3-chloro-4-(1,3-thiazol-2-ylsulfanyl)phenyl]amino}-7-methoxy-6-nitro-3-quinolinecarbonitrile] | 0.148 (≈ 0.315 µM) | 0.124 (≈ 0.264 µM) | 0.558 | 0.35 (≈ 0.745 µM) | 0.15 (≈ 0.319 µM) |  |  |  |  | 

Now from value to compound:

IC50 (A431 cells) [µg/mL] | IC50 (SK-Br-3 cells) [µg/mL] | GI50 [1] [µM] | IC50 (MDA-MB-435 cells) [µg/mL] | IC50 (SW620 cells) [µg/mL] | CELL IC50 A431 (A431 cells) [µg/mL] | CELL IC50 SKBr3 (SK-Br-3 cells) [µg/mL] | CELL IC50 3T3/NEU [1] [µg/mL] | CELL IC50 MDA-MB-435 (MDA-MB-435 cells) [µg/mL] | CELL IC50 SW620 (SW620 cells) [µg/mL] | SMILES
0.663 (≈ 1.51 µM) | 0.236 (≈ 0.536 µM) | 0.757 | 0.65 (≈ 1.48 µM) | 0.55 (≈ 1.25 µM) |  |  |  |  |  | COc1cc2ncc(C#N)c(Nc3ccc(Sc4nccs4)c(Cl)c3)c2cc1N [Example 39, 6-amino-4-{[3-chloro-4-(1,3-thiazol-2-ylsulfanyl)phenyl]amino}-7-methoxy-3-quinolinecarbonitrile]
 |  |  |  |  | 1.79 | 1.48 | 1.09 | 0.95 | 1.66 | COc1cc2ncc(C#N)c(Nc3ccc(-n4ccnc4)c(Cl)c3)c2cc1[N+](=O)[O-] [Example 41]
 |  |  |  |  | 1.63 | 1.73 | 0.53 | 1.27 | 5.99 | COc1cc2ncc(C#N)c(Nc3ccc(-n4ccnc4)c(Cl)c3)c2cc1N [Example 42]
 |  |  |  |  | 1.22 | 2.15 | 1.88 | 4.58 | 4.66 | COc1cc2ncc(C#N)c(Nc3ccc(Sc4nc5ccccc5c(=O)[nH]4)c(Cl)c3)c2cc1N [Example 45]
